Laboratory results taken from PMC12757379 (Frontiers in Pharmacology, 2025).

Tests used:
[1] = target: T1, farnesoid X receptor (FXR) (Homo sapiens, UniProt Q96RI1); test: SPR (Biacore T200); also frontal affinity chromatography KD […]; format: binding
T1 construct: gene NR1H4; human FXR protein (His Tag; Cat: 17624-H07E)
T1 sequence (Q96RI1 1-486): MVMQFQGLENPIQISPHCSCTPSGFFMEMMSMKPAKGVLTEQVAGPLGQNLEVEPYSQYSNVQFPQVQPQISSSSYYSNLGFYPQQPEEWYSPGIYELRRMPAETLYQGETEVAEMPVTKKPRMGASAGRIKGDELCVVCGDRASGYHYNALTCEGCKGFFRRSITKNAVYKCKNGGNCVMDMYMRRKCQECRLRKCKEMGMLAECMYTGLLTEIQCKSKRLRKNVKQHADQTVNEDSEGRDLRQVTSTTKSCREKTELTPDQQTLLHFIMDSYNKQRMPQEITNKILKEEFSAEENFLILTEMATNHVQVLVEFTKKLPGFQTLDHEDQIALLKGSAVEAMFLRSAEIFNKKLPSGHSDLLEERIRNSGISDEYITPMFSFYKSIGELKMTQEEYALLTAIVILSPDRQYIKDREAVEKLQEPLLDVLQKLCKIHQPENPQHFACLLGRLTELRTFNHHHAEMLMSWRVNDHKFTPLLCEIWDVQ

[2] = target: T1, farnesoid X receptor (FXR); test: retention of standard on immobilized-FXR affinity column ([…]D biochromatography); format: binding

| SMILES | Kd [1] | retention of standard on immobilized-FXR affinity column (2D biochromatography) [2] |
| --- | --- | --- |
| COc1cc(O)c2c(c1)C(=O)c1cc(C)cc(O)c1C2=O [physcion] | 30.3 µM |  |
| O=C1c2cccc(O)c2C(=O)c2c(O)cc(CO)cc21 [aloe-emodin] |  | emodin, physcion, aloe-emodin, and TSG exhibited distinct retentions, thereby confirming their strong binding affinities for FXR |
